Laboratory results reported in patent EP0151110B1 (priority 1983, dated 1985).

Experiments:
[1] = racemate; from Aberg et al., Acta pharmacol. et toxicol. 41 (1977), Table 1 at p. 435; cited from earlier work
[2] = Skin temperature within intracutaneous wheals compared with skin outside the wheals during anesthesia; format: in vivo, humans; details: for T1 °C Intracutaneous Wheal / °C Difference: HCl-salt; for T1 °C Intracutaneous Wheal: center of wheal, 10 minutes after intracutaneous injection, mean of 6 wheals; for °C Difference: T1 (wheal) minus T2 (controls outside wheal), 10 minutes after injection; for change of temperature over the wheal, in words: Table 4, Conc. 0.25 %
Description: The means value of 6 wheals for each substance forms the basis for the values. The control values, however, represent the mean value obtained from 4 different sites measured outside the wheals 90 degrees apart and 2 centimeters from the wheal's center.
In the temperature measurements, an Oriel temperature apparatust has been used. This is battery driven and is connected to a detector (diameter, 2,5 mm) and has an accuracy of ± 0.1°C. The temperature of the skin is measured by pressing the detector against the skin with a pressure of 100 grams.
against the skin until a constant temperature is obtained.
In Table 4, T, is the measurement obtained at the center of the wheal, and T2 is the average of four measurements taken 90 degrees apart outside of the wheal and within 2 centimeters of the wheal's center.

[3] = racemate; from Aberg et al., Acta pharmacol. et toxicol. 41 (1977), Table 1 at p. 435; cited from earlier work; remark: listed apart in the source
[4] = in vivo
From the text: • ^* Trypan blue test; Hoppe et al. (1950), 39, 147-151 "Use Of Trypan Blue And Rabbit Eye Tests For Irritation", J. Amer. Pharm. Ass. (Scient. Ed.), the values are approximate threshold values of tissue irritancy. • ^** LD50, i.e. 50% mortality of mice. • ^*** Studies On The Duration Of Local Anaesthesia: Structure/Activity Relationships In A Series Of Homologous Local Anaesthetics, by G. Aberg, et al., Acta pharmacol. et toxicol., 41 (1977) pp. 432-443, Table 1 at p. 435.

in vivo = details: mouse, iv, read-out: LD50** I.v. (intravenous) mg/kg/mouse
[5] = test system: periphera nerve ending of the epidermis; assay: Infiltration anesthesia, intracutaneous wheals on forearms of man (pin-prick); format: in vivo; details: compared among 12 optically active and inactive structures
Description: By use of intracutaneous wheals it is possible to measure the analgesic effect of an anesthetic on the periphera nerve ending of the epidermis.
This technique gives information about: • (1) the duration of anesthesia. • (2) Epidermal diffusion. • (3) Vascular effects. [formula]
' Infiltration anesthesia on forearms of man. The test solutions were injected intracutaneously on the dorsum of the forearms of 12 healthy volunteers, 20-25 years old. Three wheals were made on each arm in a rotating system in a double-blind fashion. The local anesthetic effect was tested using a pin-prick technique. the "duration of anesthesia" was defined as the time during which none of six pin-pricks into the wheel was felt. The method had been described by Dhuner et al. (1972). Dhuner, K. G., D. H. Lewis, A. Nyquist, D. Selander & E. Stig: Vascular effects of the isomers of mepivacaine, Acta Anaest. Scand. 1972, Supple. 48, 45-52. • * L=Laevo, R=Racemic, D=Dextro • ** C equals grams per 100 ml of solution. • ^*** New isolated stereoisomers [formula]

ulnar volar nerves = assay: Digital nerve blocks in man (finger blockade); format: in vivo; details: compared among 12 optically active and inactive structures
Description: ^2 Digital nerve blocks in man. The test solutions were injected to block the ulnar volar nerves on the 2nd and 4th fingers of the same volunteers who has participated in the intracutaneous wheal tests described above. The tests were carried out in a double blind fashion in a rotating system, so that each solution was used with equal frequency on each of the blocked fingers. A total of four injections, 1.0 ml per injection, was done in each subject. One week later the procedure was repeated in the same subjects using the remaining test solutions. This method has been described by Dhuner et al. (1972) (for citation see Table 2 footnote 1). To measure the efficacy and duration of the blocks, the individual fingers were pricked rapidly 10 times with a needle algesimeter and the number of painful pricks noted. Each finger was tested every five minutes until complete recovery. The time of complete anesthesia has been called "duration of anesthesia". • ^* i.e. - the time from injection to complete analgesia • ^** i.e. - the number of successful anesthesias of total number of anesthesias performed (no anesthesia is possible if the ulnar volar nerves are not contacted by the anesthetic) • *** new isolated stereoisomers

SMILES	T1 °C Intracutaneous Wheal ([2]; Conc. 0.25 %) [°C]	°C Difference ([2]; Conc. 0.25 %) [°C]	Tissue* toxicity limits in % [4] [%]	other results
CCCN1CCCCC1C(=O)Nc1c(C)cccc1C (racemic) [No. 3, N-n-propylpipecolic acid-2,6-xylidide]	33.1	−0.1	–	solubility in water, in words [1]: slightly soluble in water; change of temperature over the wheal, in words [2]: practically no change in temperature; Tissue toxicity (tissue irritancy), in words [3]: tissue irritating
CCCCN1CCCCC1C(=O)Nc1c(C)cccc1C (racemic) [No. 4, N-n-butylpipecolic acid-2,6-xylidide]	31.5	−0.6	–	–
Cc1cccc(C)c1NC(=O)C1CCCCN1C (racemic) [compound 1]	–	–	3.5	LD50 (in vivo): 40.3 mg/kg
CCN1CCCCC1C(=O)Nc1c(C)cccc1C (racemic) [compound 2]	–	–	3.0	LD50 (in vivo): 21 mg/kg
CCCN1CCCCC1C(=O)Nc1c(C)cccc1C (racemic) [compound 3]	–	–	1.5	–
CCCN1CCCC[C@H]1C(=O)Nc1c(C)cccc1C [L-N-n-propylpipecolic acid-2,6-xylidide]	30.0	−1.2	0.75	change of temperature over the wheal, in words [2]: lowers the temperature over its wheal to approximately the same extent as the combination of lidocaine with adrenaline; anesthetic effects, intracutaneous wheal (Table 2), in words [5]: gives the optimal increase of anesthetic effects; anesthetic effects, finger-blockade (Table 3), in words (ulnar volar nerves): gives the optimal increase of anesthetic effects
CCN1CCCC[C@@H]1C(=O)Nc1c(C)cccc1C [R-N-2-ethyl-pipecolic acid-2,6-xylidide]	–	–	–	T1 °C Intracutaneous Wheal ([2]; Conc. 1.0 %): 31.2 °C; °C Difference ([2]; Conc. 1.0 %): +0.5 °C
